Values of other authors in patent US5385842A, “Anthraquinones as inhibitors of sulfide production from sulfate-reducing bacteria” (E. I. Du Pont de Nemours and Company, priority 1993, dated 1995).

Key:
[1] = system: E. coli, Pseudomonas, Salmonella or Sarcina; settings: background art; cited from earlier work
[2] = system: Bacillus, Nocardia, Streptomyces, Proteus; settings: background art; cited from earlier work

In the case of `O=C1c2cc(O)cc(O)c2C(=O)c2c(O)ccc(O)c21` [1,4,6,8-tetrahydroxyanthraquinone], the “antibacterial activity (in words)” value [1] is given as “did not affect any species of E. coli, Pseudomonas, Salmonella or Sarcina” and the “antibacterial activity (in words)” value [2] is given as “inhibited 4 species of Bacillus, one strain of Nocardia, one strain (out of four tested) of Streptomyces and one of the Gram negative Proteus”.
